# Reference: the supplement of paper PMC6045584
# ± gives the standard deviation of the averaged measurements.
# Key:
# SNX-5422 = compound: CC1(C)CC(=O)c2c(C(F)(F)F)nn(-c3ccc(C(N)=O)c(N[C@H]4CC[C@H](OC(=O)CN)CC4)c3)c2C1 [SNX-5422]; assay: surviving fraction relative to DMSO-only wells; higher = less growth inhibition; settings: exposure time: 5 days
# Method in brief: (§1)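 Tumour cell lines in log phase were plated in 384-well plates at 250–500 cells per well, then, after 24 hours, exposed continuously for five days to inhibitors at 0.5, 1, 5, 10, 50, 100, 500 and 1000 nM. Viability came from CellTiter-Glo luminescence, and surviving fraction is that signal normalised to the median of DMSO-only wells. Plates were read after 10 minutes at room temperature, and each line, screened three times, was kept only when replicate Pearson r was >0.7 and median Z' was >0.3.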
# TIOGUANINE = compound: Nc1nc2[nH]cnc2c(=S)[nH]1 [TIOGUANINE]; assay: as above; settings: exposure time: 5 days
# Method in brief: as §1
Test System,surviving fraction (SNX-5422; 0.5 nM),surviving fraction (SNX-5422; 1 nM),surviving fraction (SNX-5422; 5 nM),surviving fraction (SNX-5422; 10 nM),surviving fraction (SNX-5422; 50 nM),surviving fraction (SNX-5422; 100 nM),surviving fraction (SNX-5422; 500 nM),surviving fraction (SNX-5422; 1000 nM),surviving fraction (TIOGUANINE; 0.5 nM),surviving fraction (TIOGUANINE; 1 nM),surviving fraction (TIOGUANINE; 5 nM),surviving fraction (TIOGUANINE; 10 nM),surviving fraction (TIOGUANINE; 50 nM),surviving fraction (TIOGUANINE; 100 nM),surviving fraction (TIOGUANINE; 500 nM),surviving fraction (TIOGUANINE; 1000 nM)
MDAMB453 BREAST,1.02 ± 0.034,1.08 ± 0.036,1.08 ± 0.028,1.08 ± 0.037,0.458 ± 0.055,0.254 ± 0.016,0.0493 ± 0.013,0.0633 ± 0.017,1.01 ± 0.073,0.999 ± 0.053,1.04 ± 0.027,1.02 ± 0.04,1.08 ± 0.03,1.03 ± 0.029,0.98 ± 0.13,0.864 ± 0.09
MFM223 BREAST,1.16 ± 0.032,1.1 ± 0.029,1.06 ± 0.025,1.08 ± 0.074,0.254 ± 0.014,0.152 ± 0.016,0.111 ± 0.0051,0.116 ± 0.0013,1.01 ± 0.13,0.997 ± 0.062,1.09 ± 0.037,1.041 ± 0.009,1.13 ± 0.031,1.13 ± 0.045,1.05 ± 0.074,1 ± 0.068
MG63 BONE,1.04 ± 0.035,1.03 ± 0.047,1.09 ± 0.037,1.11 ± 0.053,0.496 ± 0.026,0.351 ± 0.029,0.13 ± 0.0085,0.136 ± 0.013,0.974 ± 0.035,0.97 ± 0.015,1.01 ± 0.014,0.991 ± 0.007,1.02 ± 0.026,1.03 ± 0.026,0.989 ± 0.0069,0.958 ± 0.03
MHM BONE,1.01 ± 0.018,1.04 ± 0.015,1.04 ± 0.023,1.06 ± 0.013,1.02 ± 0.015,0.635 ± 0.047,0.186 ± 0.0096,0.149 ± 0.0076,0.987 ± 0.028,0.9777 ± 0.0058,1.01 ± 0.024,0.986 ± 0.011,1.026 ± 0.0069,1.039 ± 0.0067,0.983 ± 0.028,0.999 ± 0.018
NCIH441 LUNG,0.996 ± 0.029,0.976 ± 0.036,0.972 ± 0.076,1.03 ± 0.062,0.748 ± 0.093,0.748 ± 0.062,0.365 ± 0.04,0.324 ± 0.019,0.963 ± 0.053,1.03 ± 0.082,0.971 ± 0.032,0.955 ± 0.079,1.03 ± 0.024,1.02 ± 0.017,1.01 ± 0.091,0.976 ± 0.058
NOS1 BONE,1.1 ± 0.11,1.08 ± 0.052,1.16 ± 0.067,0.947 ± 0.056,0.451 ± 0.037,0.276 ± 0.012,0.113 ± 0.0076,0.117 ± 0.014,1.12 ± 0.037,1.14 ± 0.028,1.15 ± 0.093,1.17 ± 0.075,1.23 ± 0.1,1.19 ± 0.058,1.06 ± 0.099,1.05 ± 0.065
NY BONE,0.9907 ± 0.0074,1.01 ± 0.04,1.05 ± 0.045,1.03 ± 0.047,0.086 ± 0.0061,0.128 ± 0.012,0.0563 ± 0.0047,0.054 ± 0.0078,0.936 ± 0.013,0.955 ± 0.017,1.01 ± 0.022,0.972 ± 0.015,1.02 ± 0.049,1.01 ± 0.029,0.946 ± 0.025,0.902 ± 0.039
OS25HAL BONE,0.9827 ± 0.0029,1.004 ± 0.0087,1.03 ± 0.019,0.998 ± 0.036,0.789 ± 0.12,0.257 ± 0.031,0.13 ± 0.018,0.132 ± 0.023,0.943 ± 0.015,0.951 ± 0.017,0.967 ± 0.0017,0.933 ± 0.027,1 ± 0.024,1.01 ± 0.033,1.002 ± 0.0066,0.955 ± 0.032
OSHN BONE,1.1 ± 0.024,1.11 ± 0.036,1.11 ± 0.012,1.1 ± 0.018,0.842 ± 0.067,0.162 ± 0.0064,0.138 ± 0.0047,0.136 ± 0.0076,1.01 ± 0.037,1.02 ± 0.026,1.01 ± 0.035,1.02 ± 0.034,1.02 ± 0.048,1.04 ± 0.038,1.01 ± 0.039,0.9787 ± 0.007
RDES SOFT TISSUE,1.13 ± 0.087,1.28 ± 0.15,1.07 ± 0.039,1.14 ± 0.19,0.459 ± 0.056,0.367 ± 0.053,0.056 ± 0.0095,0.0543 ± 0.0085,1.19 ± 0.17,1.42 ± 0.042,1.33 ± 0.06,1.35 ± 0.13,1.25 ± 0.17,1.19 ± 0.12,1.07 ± 0.012,1.28 ± 0.15
S68 BREAST,0.798 ± 0.3,1.09 ± 0.27,0.891 ± 0.2,0.913 ± 0.18,0.154 ± 0.019,0.128 ± 0.021,0.06 ± 0.0035,0.0703 ± 0.0051,1.2 ± 0.1,0.975 ± 0.046,0.981 ± 0.04,0.941 ± 0.11,1.1 ± 0.18,1.04 ± 0.097,1.05 ± 0.14,1.04 ± 0.27
SAOS2 BONE,1.15 ± 0.034,1.14 ± 0.075,1.16 ± 0.029,1.15 ± 0.027,0.123 ± 0.015,0.0737 ± 0.0011,0.076,0.0853 ± 0.0029,1 ± 0.024,0.966 ± 0.031,1.034 ± 0.0081,0.937 ± 0.096,1.15 ± 0.014,1.15 ± 0.097,1.02 ± 0.027,1.01 ± 0.047
SCC47 HEADNECK,1.09 ± 0.084,1.17 ± 0.07,1.14 ± 0.069,1.12 ± 0.048,0.483 ± 0.0098,0.184 ± 0.015,0.0747 ± 0.0047,0.071 ± 0.0027,0.796 ± 0.02,0.834 ± 0.05,0.969 ± 0.043,0.961 ± 0.061,0.98 ± 0.035,0.966 ± 0.045,0.854 ± 0.082,0.803 ± 0.039
SCC90 HEADNECK,1.08 ± 0.089,1.08 ± 0.071,1.12 ± 0.1,1.16 ± 0.077,0.225 ± 0.08,0.155 ± 0.047,0.0307 ± 0.0061,0.0383 ± 0.0015,0.874 ± 0.047,0.873 ± 0.057,1.16 ± 0.12,1.09 ± 0.12,1.03 ± 0.17,1.08 ± 0.15,0.86 ± 0.045,0.743 ± 0.099
SG27 HEADNECK,1.04 ± 0.13,1.06 ± 0.13,1 ± 0.14,1.06 ± 0.079,1.68 ± 0.3,1.26 ± 0.088,0.071 ± 0.017,0.0733 ± 0.046,0.982 ± 0.054,0.995 ± 0.12,1.04 ± 0.091,0.984 ± 0.13,1 ± 0.089,1.02 ± 0.12,1.11 ± 0.024,0.953 ± 0.13
